Test results from patent US11186874B2, “ERK1 and ERK2 mutations that confer resistance to MAPK pathway inhibitors” (Dana-Farber Cancer Institute, Inc., priority 2014, dated 2021).

Key:
[1] = tested on: ERK1/2; assay: Western blotting of ERK signaling in A375 cells expressing ERK1/2 alleles; assay type: cell-based; settings: for ERK signaling (RSK phosphorylation, DUSP6, cyclin D1) in the presence of ERK inhibitor: ten ERK inhibitor resistance alleles, DOX, 24 h
Experimental: Cells were exposed to DOX with or without MAPK inhibitor at the same doses used in the screen for 24 h, then harvested in RIPA buffer, and run on SDS-PAGE. Proteins were transferred to PVDF membranes and analyzed using the following antibodies phosphoERK1/2, ERK1/2, phosphoELK-1 S383 (Santa Cruz), phosphoRSK (S380), RSK, tubulin, DUSP6 (Cell Signaling), cyclin D1 (Thermo Scientific), and V5 (Abcam). Relative expression was calculated by comparing densities of bands of phoshoELK-1 to total ERK (or V5). Values were normalized to untreated WT, which was set at 1.

[2] = tested on: ERK2; assay: IP kinase assay, V5-tagged ERK2, phosphorylation of recombinant ELK-1 peptide; assay type: biochemical, human; settings: for ERK kinase activity of ERK inhibitor resistance alleles in the presence of inhibitor: ERK2 resistance alleles, FIG. 3B, FIG. 10B
Experimental: (§1) Phosphorylation of ELK-1 (at serine 383) was measured by Western blotting.
(§2) ERK1 and ERK2 open constructs were transferred into DEST40 (C-terminal V5 tag) vector (Invitrogen) using LR clonase II. A375 cells were transiently transfected with V5-tagged ERK1 or ERK2 constructs using X-tremeGENE HP (Roche). […] Reactions were stopped with the addition on 3× SDS loading buffer. Samples were boiled and supernatant was run on SDS-PAGE gel for western blotting.

[3] = target: T1, ERK2 (Homo sapiens, UniProt P28482); assay: as above; assay type: biochemical; settings: wild type ERK2; VX-11e 0.1 μM added during the kinase assay
T1 construct: made in house; host or cells: A375 cells, transient transfection; captured on V5-agarose beads
T1 sequence (P28482 2-360): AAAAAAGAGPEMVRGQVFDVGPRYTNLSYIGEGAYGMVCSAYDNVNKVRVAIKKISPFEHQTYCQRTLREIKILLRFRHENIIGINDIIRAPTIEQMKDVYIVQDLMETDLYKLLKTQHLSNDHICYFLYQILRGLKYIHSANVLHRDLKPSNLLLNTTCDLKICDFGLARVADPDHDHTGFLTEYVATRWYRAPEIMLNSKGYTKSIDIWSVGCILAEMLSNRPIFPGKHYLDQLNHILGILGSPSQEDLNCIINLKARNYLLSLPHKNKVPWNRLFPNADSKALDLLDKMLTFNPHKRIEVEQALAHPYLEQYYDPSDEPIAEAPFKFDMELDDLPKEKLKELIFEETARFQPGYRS
Experimental: as §1, §2

[4] = tested on: A375 cells; assay: MTS growth assay of A375 cells expressing DOX-inducible ERK1/2 alleles in the presence of MAPK pathway inhibitors; assay type: cell-based
Text: To verify their resistance effects, we engineered the relevant mutations for highly mutated alleles or for low frequency alleles that were analogous between ERK1 and ERK2 within the coding sequence of ERK1 or ERK2 by site directed mutagenesis in the doxycycline-inducible vector. […] Here, we defined validation as a >4-fold increase in cell growth conferred by DOX-induced mutant ERK expression compared to control cells cultured without DOX (FIG. 2A, Table 4, FIG. 8G).
A375, WM266.4, or SKmel19 cells were plated in 96-well plates, with six replicates for each drug. Drugs were added the next day with or without DOX. Cell growth was analyzed 72-96 hours later by MTS assay (Promega). The inhibitor concentrations were the same as the screen. […] Growth was normalized to DMSO, NO-DOX controls, and graphed as percent growth. Heatmaps were created from growth assays using GENE-E (Available on the World Wide Web at broadinstitute.org/cancer/software/GENE-E/download.html). For some growth assays, a half-log dose response curve was generated to determine sensitivity. The concentration of DMSO was 0.1%.

[5] = target: T2, ERK1 (Homo sapiens, UniProt P27361, Y148H); assay: IP kinase assay, V5-tagged ERK1, phosphorylation of recombinant ELK-1 peptide; assay type: biochemical; settings: ERK1^Y148; trametinib 3 nM, 4 h
T2 construct: made in house; host or cells: A375 cells, transient transfection; captured on V5-agarose beads
T2 sequence (P27361 2-379 Y148H): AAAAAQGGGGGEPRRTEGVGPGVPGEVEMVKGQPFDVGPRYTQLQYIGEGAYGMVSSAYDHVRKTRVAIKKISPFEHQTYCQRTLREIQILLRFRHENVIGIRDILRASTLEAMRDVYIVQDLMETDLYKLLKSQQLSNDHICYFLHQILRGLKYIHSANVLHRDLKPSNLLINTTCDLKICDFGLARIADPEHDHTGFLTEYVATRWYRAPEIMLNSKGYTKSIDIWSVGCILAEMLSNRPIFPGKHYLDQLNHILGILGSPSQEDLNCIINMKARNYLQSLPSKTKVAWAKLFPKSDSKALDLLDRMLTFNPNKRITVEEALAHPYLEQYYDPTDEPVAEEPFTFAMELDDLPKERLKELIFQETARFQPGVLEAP

[6] = tested on: ERK1; assay: as above; assay type: biochemical, human; settings: ERK1 alleles; trametinib 3 nM, 4 h, added to cells prior to harvest

| Structure (SMILES) | ERK signaling (RSK phosphorylation, DUSP6, cyclin D1) in the presence of ERK inhibitor ([1]; A375) | ERK phosphorylation ([1]; any context examined) | ERK kinase activity of ERK inhibitor resistance alleles in the presence of inhibitor [2] | ELK-1 phosphorylation (serine 383) induced by wild type ERK2 [3] | increase in cell growth conferred by DOX-induced mutant ERK expression compared to control cells cultured without DOX ([4]; 16 validated of 20 candidate ERK1/2 resistance alleles, VX-11e 2 μM) [fold] | effect on growth in the presence of the ERK inhibitor ([4]; kinase-dead ERK1 and ERK2 and GFP, VX-11e 2 μM) | growth advantage in the presence of the ERK inhibitor ([4]; wild-type ERK1 and ERK2, VX-11e 2 μM) [fold] | residual kinase activity of common docking domain mutants compared to other alleles ([2]; ERK2^Y131, ERK2^D321G, ERK2^E322K, trametinib 3 nM, 4 h) | ERK kinase activity (ELK-1 peptide phosphorylation) of RAF/MEK inhibitor resistant alleles in the presence of MEK inhibitor ([2]; ERK2 alleles, trametinib 3 nM, 4 h, added to cells prior to harvest) | residual kinase activity of common docking domain mutants compared to other alleles [5] | ERK kinase activity (ELK-1 peptide phosphorylation) of RAF/MEK inhibitor resistant alleles in the presence of MEK inhibitor [6] | phosphorylation of ERK2-resistant alleles ([1]; A375, ERK inhibitor resistant ERK2 alleles) | phosphorylation of wild type ERK1/2 ([1]; A375, wild type ERK1/2) | growth advantage ([4]; ERK1^Y53H, 0.5 μM SCH772984) [fold] | increase in cell growth ([4]; ERK1^Y53H, 1 μM SCH772984) [fold] | increase in cell growth with allele expression ([4]; selected VX-11e-resistant ERK1 and ERK2 alleles, SCH772984) |
| --- | --- | --- | --- | --- | --- | --- | --- | --- | --- | --- | --- | --- | --- | --- | --- | --- |
| Cc1cnc(Nc2ccc(F)cc2Cl)nc1-c1c[nH]c(C(=O)N[C@H](CO)c2cccc(Cl)c2)c1 [VX-11e] | sustained ERK signaling | no effect | maintained ERK kinase activity | completely blocked | > 4 | no effect | 1.5 | – | – | – | – | – | – | – | – | – |
| CC(=O)Nc1cccc(-n2c(=O)n(C3CC3)c(=O)c3c(Nc4ccc(I)cc4F)n(C)c(=O)c(C)c32)c1 [trametinib] | – | – | – | – | – | – | – | diminished residual kinase activity | maintained ERK kinase activity | diminished residual kinase activity | maintained ERK kinase activity | – | – | – | – | – |
| O=C(Nc1ccc2[nH]nc(-c3ccncc3)c2c1)[C@@H]1CCN(CC(=O)N2CCN(c3ccc(-c4ncccn4)cc3)CC2)C1 [SCH772984] | maintained | – | maintained ERK kinase activity | – | – | – | – | – | – | – | – | no effect | decreased | 5 | 2.5 | over 4 fold |
